Results published in ChEMBL document CHEMBL4145551, “Mitochondria-targeting indolizino[3,2-c]quinolines as novel class of photosensitizers for photodynamic anticancer activity” (Eur J Med Chem, 2018).
Activity calls are given as the source filed them. No cut-off for these calls is given here.

What was measured:
[1] = Induction of singlet oxygen production assessed as photodegradation of DPBF by measuring quantum yield after irradiation with 356 nanometer light by UV-Visible spectroscopic analysis; assay type: functional
A549 [2] = assay: Photocytotoxicity against human A549 cells assessed as reduction in cell viability preincubated for 1 hr followed blue LED light irradiation for 5 mins and measured after 24 hrs by MTT assay; assay type: functional, cell-based; details: for IC50: A549, light or radiation study
A549 [3] = assay: Photocytotoxicity against human A549 cells assessed as reduction in cell viability preincubated for 1 hr followed blue LED light irradiation for 10 mins and measured after 24 hrs by MTT assay; assay type: functional, cell-based; details: for IC50: A549, light or radiation study
MCF7 [4] = assay: Photocytotoxicity against human MCF7 cells assessed as reduction in cell viability preincubated for 1 hr followed blue LED light irradiation for 5 mins and measured after 24 hrs by MTT assay; assay type: functional, cell-based; details: for IC50: MCF7, light or radiation study
MCF7 [5] = assay: Photocytotoxicity against human MCF7 cells assessed as reduction in cell viability preincubated for 1 hr followed blue LED light irradiation for 10 mins and measured after 24 hrs by MTT assay; assay type: functional, cell-based; details: for IC50: MCF7, light or radiation study
HeLa [6] = assay: Photocytotoxicity against human HeLa cells assessed as reduction in cell viability preincubated for 1 hr followed blue LED light irradiation for 5 mins and measured after 24 hrs by MTT assay; assay type: functional, cell-based; details: for IC50: light or radiation study
HeLa [7] = assay: Photocytotoxicity against human HeLa cells assessed as reduction in cell viability preincubated for 1 hr followed blue LED light irradiation for 10 mins and measured after 24 hrs by MTT assay; assay type: functional, cell-based; details: for IC50: light or radiation study
[8] = Dark toxicity in human A549 cells assessed as reduction in cell viability up to 10 uM measured after 24 hrs by MTT assay; assay type: cell-based; details: a549, 24 h
[9] = Dark toxicity in human MCF7 cells assessed as reduction in cell viability up to 10 uM measured after 24 hrs by MTT assay; assay type: cell-based; details: mcf7, 24 h
[10] = Dark toxicity in human HeLa cells assessed as reduction in cell viability up to 10 uM measured after 24 hrs by MTT assay; assay type: cell-based
DNA [11] = assay: Induction of Escherichia coli pBR322 DNA cleavage at 20 uM after 30 mins under dark condition by agarose gel electrophoresis method; assay type: nucleic-acid assay; details: 0.5 h
HeLa [12] = assay: Induction of ROS generation in human HeLa cells preincubated for 1 hr followed by blue LED light irradiation for 15 mins by DHE staining based HCS analysis; assay type: functional, cell-based
HeLa [13] = assay: Photocytotoxicity against human HeLa cells assessed as plasma membrane blebbing up to 10 uM preincubated for 1 hr followed by blue LED light irradiation for 5 mins and measured after 13 hrs by Hoechst 33258 staining based fluorescence microscopic method; assay type: functional, cell-based
HeLa [14] = assay: Photocytotoxicity against human HeLa cells assessed as chromatin condensation up to 10 uM preincubated for 1 hr followed by blue LED light irradiation for 5 mins and measured after 13 hrs by Hoechst 33258 staining based fluorescence microscopic method; assay type: functional, cell-based
HeLa [15] = assay: Photocytotoxicity against human HeLa cells assessed as DNA fragmentation up to 10 uM preincubated for 1 hr followed by blue LED light irradiation for 5 mins and measured after 13 hrs by Hoechst 33258 staining based fluorescence microscopic method; assay type: functional, cell-based
HeLa [16] = assay: Photocytotoxicity against human HeLa cells assessed as cellular shrinkage up to 10 uM preincubated for 1 hr followed by blue LED light irradiation for 5 mins and measured after 13 hrs by Hoechst 33258 staining based fluorescence microscopic method; assay type: functional, cell-based
DNA [17] = assay: Induction of Escherichia coli pBR322 DNA cleavage irradiated with blue LED light after 30 mins by agarose gel electrophoresis method; assay type: nucleic-acid assay
DNA [18] = assay: Induction of Escherichia coli pBR322 DNA cleavage at 20 uM irradiated with blue LED light after 30 mins in presence of H2O2 scavenger KI by agarose gel electrophoresis method; assay type: nucleic-acid assay
DNA [19] = assay: Induction of Escherichia coli pBR322 DNA cleavage at 20 uM irradiated with blue LED light after 30 mins in presence of hydroxyl radical scavenger mannitol by agarose gel electrophoresis method; assay type: nucleic-acid assay
DNA [20] = assay: Induction of Escherichia coli pBR322 DNA cleavage at 20 uM irradiated with blue LED light after 30 mins in presence of singlet oxygen scavenger sodium azide by agarose gel electrophoresis method; assay type: nucleic-acid assay
HeLa [21] = assay: Photocytotoxicity against human HeLa cells assessed as reduction in cell viability at 2 uM preincubated for 1 hr followed blue LED light irradiation for 5 mins and measured after 24 hrs in presence of singlet oxygen scavenger histidine by MTT assay; assay type: functional, cell-based
[22] = Drug uptake in human HeLa cell mitochondria at 10 uM after 1 hr by mitotracker red staining based confocal laser scanning microscopic method; assay type: ADME
HeLa [23] = assay: Photocytotoxicity against human HeLa cells assessed as induction of mitochondrial membrane potential depolarization at 10 uM preincubated for 1 hr followed by blue LED light irradiation for 5 mins by TMRE staining based confocal microscopic method; assay type: functional, cell-based
MCF7 [24] = assay: Photocytotoxicity against human MCF7 cells assessed as induction of mitochondrial membrane potential depolarization at 10 uM preincubated for 1 hr followed by blue LED light irradiation for 5 mins by TMRE staining based confocal microscopic method; assay type: functional, cell-based
HeLa [25] = assay: Photocytotoxicity against human HeLa cells assessed as cell membrane blebbing at 10 uM preincubated for 1 hr followed by blue LED light irradiation for 5 mins by differential interference contrast imaging analysis; assay type: functional, cell-based
HeLa [26] = assay: Photocytotoxicity against human HeLa cells assessed as cell death at 0.5 uM preincubated for 1 hr followed blue LED light irradiation for 5 mins and measured after 24 hrs by MTT assay relative to control; assay type: functional
HeLa [27] = assay: Photocytotoxicity against human HeLa cells assessed as morphological changes at 5 uM preincubated for 1 hr followed by blue LED light irradiation for 10 mins and measured after 2.5 hrs by holotomographic method; assay type: functional, cell-based

Compound | Activity [1] | Activity (A549 [2]) | IC50 (A549 [2]) [nM] | Activity (A549 [3]) | IC50 (A549 [3]) [nM] | Activity (MCF7 [4]) | IC50 (MCF7 [4]) [nM] | Activity (MCF7 [5]) | IC50 (MCF7 [5]) [nM] | Activity (HeLa [6]) | IC50 (HeLa [6]) [nM] | Activity (HeLa [7]) | IC50 (HeLa [7]) [nM] | Activity [8] | Activity [9] | Activity [10] | Activity (DNA [11]) | Activity (HeLa [12]) | Activity (HeLa [13]) | Activity (HeLa [14]) | other results
Cc1cccn2c1cc1c3ccccc3nc(-c3ccc(Cl)o3)c12 | 0.38 | Dose-dependent effect | 1430 | Dose-dependent effect | 1130 | Dose-dependent effect | 930 | Dose-dependent effect | 620 | Dose-dependent effect | 3510 | Dose-dependent effect | 2070 | Non-Toxic | Non-Toxic | Non-Toxic | Non-Toxic | Dose-dependent effect | Active | Active | Activity (HeLa [15]): Active; Activity (HeLa [16]): Active
Cc1cccn2c1cc1c3ccccc3nc(-c3cccs3)c12 | 0.42 | Dose-dependent effect | 3380 | Dose-dependent effect | 1990 | Dose-dependent effect | 2680 | Dose-dependent effect | 1390 | Dose-dependent effect | 1170 | Dose-dependent effect | 550 | Non-Toxic | Non-Toxic | Non-Toxic | Non-Toxic | Dose-dependent effect | Active | Active | Activity (DNA [17]): Dose-dependent effect; Activity (DNA [18]): inactive; Activity (DNA [19]): Active; Activity (DNA [20]): inactive; Activity (HeLa [21]): inactive; Drug uptake [22]: Active; Activity (HeLa [23]): Active; Activity (MCF7 [24]): Active; Activity (HeLa [25]): Active; Activity (HeLa [15]): Active; Activity (HeLa [16]): Active
c1csc(-c2nc3ccccc3c3cc4ccccn4c23)c1 | 0.4 | Dose-dependent effect | 4150 | Dose-dependent effect | 1990 | Dose-dependent effect | 3460 | Dose-dependent effect | 1550 | Dose-dependent effect | 1450 | Dose-dependent effect | 630 | Non-Toxic | Non-Toxic | Non-Toxic | Non-Toxic | Dose-dependent effect | Active | Active | Activity (DNA [17]): Dose-dependent effect; Activity (HeLa [21]): inactive; Activity (HeLa [15]): Active; Activity (HeLa [16]): Active
Clc1ccc(-c2nc3ccccc3c3cc4ccccn4c23)s1 | 0.47 | Dose-dependent effect | 1330 | Dose-dependent effect | 1030 | Dose-dependent effect | 1680 | Dose-dependent effect | 1040 | Dose-dependent effect | 490 | Dose-dependent effect | 410 | Non-Toxic | Non-Toxic | Non-Toxic | Non-Toxic | Dose-dependent effect | Active | Active | Activity (HeLa [26]): >50%; Activity (HeLa [15]): Active; Activity (HeLa [16]): Active; Activity (HeLa [27]): Active
Brc1ccc2cc3c4ccccc4nc(-c4ccco4)c3n2c1 | 0.6 | Dose-dependent effect | 2160 | Dose-dependent effect | 1590 | Dose-dependent effect | 1330 | Dose-dependent effect | 830 | Dose-dependent effect | 1140 | Dose-dependent effect | 810 | Toxic | Toxic | Toxic | Non-Toxic | Dose-dependent effect | Active | Active | Activity (DNA [17]): Dose-dependent effect; Activity (HeLa [15]): Active; Activity (HeLa [16]): Active
